Results published in patent publication US5401769A, “Dibenzofuranyl N-alkyl carbamates” (priority 1994, dated 1995).

Tests used:
[1] = biological target: T1, cholesterol ester hydrolase (CEH) / cholesterol esterase (EC 3.1.1.13) (Bos taurus, UniProt P30122); test: In vitro inhibition of cholesteryl ester formation by cholesterol esterase (CEH); format: biochemical, bovine
T1 construct: purchased Sigma Company, St. Louis, Mo., U.S.A. C-1892; host or cells: bovine pancreas
T1 sequence (P30122 19-597): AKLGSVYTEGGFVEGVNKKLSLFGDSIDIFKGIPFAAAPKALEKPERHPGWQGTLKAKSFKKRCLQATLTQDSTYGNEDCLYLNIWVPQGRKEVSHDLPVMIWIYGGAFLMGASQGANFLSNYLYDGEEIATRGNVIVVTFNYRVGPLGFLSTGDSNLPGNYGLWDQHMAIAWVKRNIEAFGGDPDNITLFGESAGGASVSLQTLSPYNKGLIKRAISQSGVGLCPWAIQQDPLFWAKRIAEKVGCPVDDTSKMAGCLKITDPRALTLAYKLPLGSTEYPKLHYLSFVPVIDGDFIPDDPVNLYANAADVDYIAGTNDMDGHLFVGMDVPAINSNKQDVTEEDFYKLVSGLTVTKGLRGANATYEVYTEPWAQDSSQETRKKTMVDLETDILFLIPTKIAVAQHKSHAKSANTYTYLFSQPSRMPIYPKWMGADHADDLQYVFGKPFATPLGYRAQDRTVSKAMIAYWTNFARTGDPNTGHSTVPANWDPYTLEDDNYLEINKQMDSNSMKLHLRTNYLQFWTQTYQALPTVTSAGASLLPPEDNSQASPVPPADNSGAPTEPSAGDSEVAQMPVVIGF
Description: (§1) The in vitro and in vivo standard experimental test procedures used to establish the ability of the anticholesterolemic compounds of this invention to prevent cholesteryl ester formation and to inhibit cholesterol absorption, are given below and the biological results are presented in Table I.
In Vitro Test Procedure: The ability of the compounds of this invention to inhibit the formation of cholesteryl esters and thereby interfere with and prevent assimilation of cholesterol into the lymphatic system and ultimately the blood stream was established by incubating the compounds at 37° C. with a mixture of cholesterol and oleic acid in the presence of buffered cholesterol esterase [(EC 3.1.1.13) Sigma Company, St. Louis, Mo., U.S.A., No. C-1892, from bovine pancreas] and measuring the amount of ester formed, according to the procedure of Field, J. of Lipid Research, 25, 389 (1984).

[2] = system: absorption of 14C-cholesterol; test: In vivo cholesterol absorption, [4-14C] cholesterol, serum radioactivity at six hours, normal rats; details: 10 mg/kg oral, 6 hr, normal rat, percent decrease compared to control
Experimental: as §1
In Vivo Assay: The in vivo cholesterol absorption studies were conducted in normal rats by oral administration of the compound being tested in propylene glycol and olive oil followed by oral administration of [4-^14 C] cholesterol in propylene glycol and olive oil, otherwise following the procedure of Cayen et al., J. Lipid Res. 20, 162 (1979). The serum radioactivity was measured at six hours after dosing. The results of this study are reported in the following Table I as percent decrease compared to control.

SMILES | IC50 [1] | In Vivo Results Effect on Absorption of 14C-chol, % Decrease [2] | IC25 ([1]; IC25 printed in the IC50 column, 37° C., cholesterol and oleic acid, cholesterol esterase from bovine pancreas)
CCCCNC(=O)Oc1ccc2oc3ccccc3c2c1 [Example 1, Butylcarbamic acid 2-dibenzofuranyl ester] | 25 µM |  | 
CC(C)CCCC(C)NC(=O)Oc1ccc2oc3ccccc3c2c1 (centres unmarked) [Example 2, (1.5-Dimethylhexyl) carbamic acid 2-dibenzofuranyl ester] | 3 µM | 33% | 
CCCCCCNC(=O)Oc1ccc2oc3ccccc3c2c1 [Example 3, Hexylcarbamic acid 2-dibenzofuranyl ester] | 9.3 µM | 37% | 
O=C(NCCCCc1ccccc1)Oc1ccc2oc3ccccc3c2c1 [Example 4, (4-Phenylbutyl)carbamic acid 2-dibenzofuranyl ester] | 68 µM | 44% | 
CNC(=O)Oc1ccc2oc3ccccc3c2c1 [Example 5, Methylcarbamic acid 2-dibenzofuranyl ester] | 42 µM |  | 
O=C(NCC1CCCCC1)Oc1ccc2oc3ccccc3c2c1 [Example 6, (Cyclohexylmethyl)carbamic acid 2-dibenzofuranyl ester] | 13.8 µM | 43% | 
CCCCCCCCCCCCNC(=O)Oc1ccc2oc3ccccc3c2c1 [Example 7, Dodecylcarbamic acid 2-dibenzofuranyl ester] |  | 13% | 7.2 µM
CCNC(=O)Oc1ccc2oc3ccccc3c2c1 [Example 8, Ethylcarbamic acid 2-dibenzofuranyl ester] | 18.9 µM | 18% | 
